The record followed here is ChEMBL document CHEMBL5385957, “Pleonotoquinones, Cytotoxic Oxepinenaphthoquinones from Pleonotoma jasminifolia” (J Nat Prod, 2024).

The subject of one data set is HCT-116. In words: Cytotoxicity against human HCT-116 cells assessed as cell growth inhibition. Format: functional, cell-based.
The test system of a further data set is HepG2. In words: Cytotoxicity against human HepG2 cells assessed as cell growth inhibition. Format: functional, cell-based.
Data set [1] can be described thus: Cytotoxicity against human MRC5 cells assessed as cell growth inhibition. Format: toxicity, cell-based.
Data set [2] in a line: Selectivity index, ratio of IC50 for human MRC5 cells to IC50 for human HCT-116 cells. The data set is classed as toxicity. Conditions: MRC5 cells versus HCT-116 cells, read-out: Ratio IC50.
Data set [3] can be described thus: Selectivity index, ratio of IC50 for human MRC5 cells to IC50 for human HepG2 cells. The data set is classed as toxicity. Particulars: MRC5 cells versus HepG2 cells, read-out: Ratio IC50.

As usually defined, the IC50 is the concentration needed to halve the response being measured. As to `COc1ccc2c(c1OC)C(=O)c1cc(C)ccc1C2=O`, the IC50 (in the data set on HCT-116; with HepG2; in data set [1]) was above 10 µM in each case.

Turning to `COc1cccc2c1C(=O)c1c(O)c3c(c(O)c1C2=O)C[C@@](O)(C(=O)CO)C[C@@H]3O[C@H]1C[C@H](N)[C@H](O)[C@H](C)O1` [DOXORUBICIN], the IC50 in the data set on HepG2 stood at 0.7 µM; in data set [1], 3.5 µM.

For the molecule `COc1c(O)ccc2c1C(=O)c1cc(C)ccc1C2=O`, the 50% inhibitory concentration (IC50) (in the data set on HCT-116; in the data set with HepG2; in data set [1]) was above 10 µM throughout.

On to `COc1ccc2c(=O)c3cccc(C)oc=3c(=O)c2c1OC`, for which the IC50 was 4.3 µM with HCT-116, 6.4 µM with HepG2 and above 10 µM in data set [1]. In addition, the selectivity ratio in data set [2] is 2.9; in data set [3], 1.9.

With `COc1c(O)ccc2c(=O)c3cccc(C)oc=3c(=O)c12`, the IC50 worked out at 2.6 µM in the data set with HCT-116, 1.9 µM in the data set on HepG2 and 8.2 µM in data set [1]. The values for the selectivity ratio in data set [2] and in data set [3] were 3.1 and 4.1, respectively.
